Results taken from patent US4172782A, “Recovery of catalyst” (Sumitomo Chemical Company, Limited, priority 1977, dated 1979).

Assay: Solubility of tetra-n-butylammonium bromide in aqueous sodium hydroxide solutions
Assay type: physicochemical
Settings: aqueous NaOH, 20° C.
Method: The organic quaternary ammonium salt is soluble both in water and in the oil layer. Its solubility in an aqueous alkali solution varies with the concentration of the alkali. The solubilities of tetra-n-butylammonium bromide, as an example of organic quaternary ammonium salts, in aqueous sodium hydroxide solutions were measured at 20° C. and the results obtained were as shown in Table 1.

With `CCCC[N+](CCCC)(CCCC)CCCC.[Br-]` [tetra-n-butylammonium bromide] the “Solubility of tetra-n-butylammonium bromide” value (shortened to “Solubility”) (1% by wt.) was 27 % by wt, the “Solubility” value (2% by wt.) was 11 % by wt and the “Solubility” value (5% by wt.) was 2.4 % by wt. For the same molecule, the “Solubility” value (10% by wt.) was 1.2 % by wt and the “Solubility” value (15% by wt.) was 0.07 % by wt.
